Source: ChEMBL document CHEMBL3779885, “Inhibition of human DNA topoisomerase IIα by two novel ellipticine derivatives” (Bioorg Med Chem Lett, 2016)
pIC50: −log10 of the molar value. The source made the active and inactive calls. The rule behind the calls is not given here.

Experiments:
Calf thymus DNA = experiment: Inhibition of calf thymus DNA topoisomerase 2 assessed as DNA cleavage after 30 mins by agarose gel electrophoresis; type: nucleic-acid assay, Bos taurus
[1] = target: T1, DNA topoisomerase 2-alpha (Homo sapiens, UniProt P11388); experiment: Inhibition of recombinant human DNA topoisomerase 2alpha binding to supercoiled pBR322 DNA expressed in topoisomerase1 deficient Saccharomyces cerevisiae JEL1 at 25 uM after 6 mins by electrophoretic mobility shift assay
T1 sequence (P11388 whole entry): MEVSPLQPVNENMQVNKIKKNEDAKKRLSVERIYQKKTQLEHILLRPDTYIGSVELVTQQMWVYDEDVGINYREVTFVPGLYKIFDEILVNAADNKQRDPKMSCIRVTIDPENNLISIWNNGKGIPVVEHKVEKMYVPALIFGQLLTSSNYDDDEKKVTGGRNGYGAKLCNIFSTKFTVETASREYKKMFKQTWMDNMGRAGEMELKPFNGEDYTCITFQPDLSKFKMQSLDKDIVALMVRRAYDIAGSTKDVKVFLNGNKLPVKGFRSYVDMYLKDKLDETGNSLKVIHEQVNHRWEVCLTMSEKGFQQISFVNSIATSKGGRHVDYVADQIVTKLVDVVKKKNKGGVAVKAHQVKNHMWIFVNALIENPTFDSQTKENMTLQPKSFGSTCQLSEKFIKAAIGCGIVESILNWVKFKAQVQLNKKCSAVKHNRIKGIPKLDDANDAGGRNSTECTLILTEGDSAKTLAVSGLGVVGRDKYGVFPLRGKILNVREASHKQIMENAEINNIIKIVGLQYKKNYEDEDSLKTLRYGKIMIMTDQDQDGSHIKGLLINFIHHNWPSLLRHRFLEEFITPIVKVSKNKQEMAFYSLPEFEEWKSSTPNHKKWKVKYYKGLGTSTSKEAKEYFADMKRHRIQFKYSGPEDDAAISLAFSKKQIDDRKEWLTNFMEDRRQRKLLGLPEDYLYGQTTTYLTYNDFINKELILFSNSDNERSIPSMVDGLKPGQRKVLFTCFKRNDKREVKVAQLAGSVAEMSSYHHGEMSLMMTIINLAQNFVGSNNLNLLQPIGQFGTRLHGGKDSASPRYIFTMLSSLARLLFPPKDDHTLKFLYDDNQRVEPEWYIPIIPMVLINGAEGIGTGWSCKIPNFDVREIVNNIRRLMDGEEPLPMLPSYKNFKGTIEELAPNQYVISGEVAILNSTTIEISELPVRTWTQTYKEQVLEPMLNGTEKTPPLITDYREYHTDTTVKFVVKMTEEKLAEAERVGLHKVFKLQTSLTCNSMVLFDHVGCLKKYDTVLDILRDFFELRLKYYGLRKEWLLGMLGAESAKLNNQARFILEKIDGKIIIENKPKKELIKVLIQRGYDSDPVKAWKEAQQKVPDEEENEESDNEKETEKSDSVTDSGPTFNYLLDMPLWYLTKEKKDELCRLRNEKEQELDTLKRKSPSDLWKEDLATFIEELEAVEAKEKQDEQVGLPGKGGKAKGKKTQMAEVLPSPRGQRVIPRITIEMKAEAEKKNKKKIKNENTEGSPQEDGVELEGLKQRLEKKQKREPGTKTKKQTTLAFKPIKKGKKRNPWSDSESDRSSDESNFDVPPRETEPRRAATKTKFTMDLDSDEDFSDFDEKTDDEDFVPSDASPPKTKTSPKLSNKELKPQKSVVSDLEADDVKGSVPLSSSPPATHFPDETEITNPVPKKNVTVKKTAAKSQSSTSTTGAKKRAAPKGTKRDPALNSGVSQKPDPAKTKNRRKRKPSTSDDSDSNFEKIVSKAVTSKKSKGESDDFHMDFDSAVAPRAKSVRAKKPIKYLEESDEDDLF

[2] = target: T1, DNA topoisomerase 2-alpha; experiment: Inhibition of recombinant human DNA topoisomerase 2alpha expressed in topoisomerase1 deficient Saccharomyces cerevisiae JEL1 assessed as inhibition of DNA scission activity at 25 uM after 30 mins by agarose gel electrophoresis
Escherichia coli = experiment: Induction of DNA intercalation in relaxed pBR322 DNA assessed as conversion of relaxed DNA to negatively supercoiled DNA by measuring topoisomerase 1-mediated DNA relaxation measured up to 25 uM after 15 mins by agarose gel electrophoresis
[3] = target: T1, DNA topoisomerase 2-alpha; experiment: Inhibition of recombinant human DNA topoisomerase 2alpha expressed in topoisomerase1 deficient Saccharomyces cerevisiae JEL1 assessed as inhibition of DNA scission activity after 30 mins by agarose gel electrophoresis
[4] = target: T1, DNA topoisomerase 2-alpha; experiment: Activity at recombinant human DNA topoisomerase 2alpha expressed in topoisomerase1 deficient Saccharomyces cerevisiae JEL1 assessed as topoisomerase 2alpha-mediated supercoiled pBR322 DNA cleavage up to 200 uM after 15 mins by agarose gel electrophoresis
[5] = target: T1, DNA topoisomerase 2-alpha; experiment: Inhibition of recombinant human DNA topoisomerase 2alpha expressed in topoisomerase1 deficient Saccharomyces cerevisiae JEL1 using kinetoplast DNA as substrate assessed as decantenated kDNA minicircles at 200 to 1000 uM after 15 mins by agarose gel electrophoresis
[6] = target: T1, DNA topoisomerase 2-alpha; experiment: Induction of recombinant human DNA topoisomerase 2alpha binding to supercoiled pBR322 DNA expressed in topoisomerase1 deficient Saccharomyces cerevisiae JEL1 at 25 uM after 6 mins by electrophoretic mobility shift assay

Row | SMILES | pIC50 (Calf thymus DNA) | inhibition [1] | inhibition [2] [%] | Activity (Escherichia coli) | pIC50 [3] | Activity [4] | inhibition [5] | Activity [6] [%]
1 | Cc1c2ccncc2c(C)c2c1[nH]c1ccccc12 [ELLIPTECINE] | < 3.70 | – | – | – | – | – | – | –
2 | Cc1c2cnccc2cc2c1c1ccccc1n2C | – | inactive | 40 | Active | 4.40 | inactive | Active | –
3 | Cc1c2c[n+](C)ccc2cc2c1c1ccccc1n2C | – | inactive | 80 | Active | 5.30 | inactive | Active | 50
